# Where two headings read alike, the source gives them in different places.
# What was measured:
# [1] = biological target: T1, Dictyostelium discoideum myosin 2 motor domain (DdMD) (Dictyostelium discoideum, UniProt P08799); experiment: Steady state MgATPase, NADH-coupled assay, DdMD; type: biochemical; conditions: for IC50: 20° C.
# T1 construct: Dictyostelium discoideum myosin 2 motor domain (DdMD)
# T1 sequence (P08799 86-759 limits assumed): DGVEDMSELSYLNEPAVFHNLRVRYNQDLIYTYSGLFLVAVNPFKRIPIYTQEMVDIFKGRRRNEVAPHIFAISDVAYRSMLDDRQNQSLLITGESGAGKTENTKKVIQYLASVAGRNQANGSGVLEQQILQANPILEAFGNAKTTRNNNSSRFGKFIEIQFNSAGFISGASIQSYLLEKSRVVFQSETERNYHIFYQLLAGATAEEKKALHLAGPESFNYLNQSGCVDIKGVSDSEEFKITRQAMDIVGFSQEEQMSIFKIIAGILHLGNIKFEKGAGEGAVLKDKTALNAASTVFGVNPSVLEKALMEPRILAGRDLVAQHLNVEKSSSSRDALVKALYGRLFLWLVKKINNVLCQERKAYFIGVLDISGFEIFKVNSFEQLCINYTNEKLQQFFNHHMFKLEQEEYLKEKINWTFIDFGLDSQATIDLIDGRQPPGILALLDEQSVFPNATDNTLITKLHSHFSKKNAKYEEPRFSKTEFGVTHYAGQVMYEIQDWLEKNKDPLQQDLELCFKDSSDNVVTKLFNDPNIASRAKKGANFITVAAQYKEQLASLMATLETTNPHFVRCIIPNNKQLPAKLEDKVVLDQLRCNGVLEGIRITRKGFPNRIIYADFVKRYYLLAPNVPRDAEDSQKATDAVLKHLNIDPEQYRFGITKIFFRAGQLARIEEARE
# Method: MgATPase activities of 500 nM (for basal ATPase) or 50 nM (for actin activated ATPase) SkS1 (rabbit skeletal S1 fragment) 23 and 1 μM (for basal ATPase) or 300 nM (for actin activated ATPase) DdMD were measured at increasing concentrations of neurelaxin-A in the absence or in the presence of 45 μM actin for SkS1 or 15 μM actin for DdMD. Measurements were carried out using a pyruvate kinase/lactate dehydrogenase coupled assay (NADH-coupled assay) (Kovacs M. et al., J. Biol. Chem. 2004, 279 (34), pp 35557-35563) at 25° C. or 20° C. in case of SkS1 or DdMD, respectively. Myosin and actin together with the indicated concentration of the inhibitor were pre-incubated for 5 minutes at room temperature and the measurements were initiated with 1 mM ATP. Data were corrected for background ATPase activity of actin. G-actin was prepared accordingly from rabbit skeletal muscle (Spudich, J. A. & Watt, S.; The Journal of Biological Chemistry 246, 1971, pp 4866-4871) and polymerized by 2 mM MgCl2 for 1 hour at room temperature. Measurements were performed in low salt buffer containing 5 mM HEPES, 2 mM MgCl2, 0.1 mM EGTA and 2 mM DTT at pH 7.2 or assay buffer containing 20 mM HEPES, 40 mM NaCl, 4 mM MgCl2 at pH 7.3 for basal ATPase activity measurements with DdMD.
# The basal and actin activated ATPase activities of rabbit skeletal muscle myosin S1 (SkS1) and Dictyostelium discoideum myosin 2 motor domain (DdMD) were measured at increasing concentrations of neurelaxin-A (FIGS. 3A and 3B).
# [2] = test system: zebrafish skeletal muscle; experiment: Zebrafish fast escape response (C-start), maximal angular velocity; type: in vivo, zebrafish (Danio rerio); conditions: 6 dpf zebrafish
# Method: For the fast escape response experiments, 6 dpf larvae were placed in 50 μl drops on a plastic plate. They were treated with 0, 2, 5, 10 or 20 μM of neurelaxin-A. To evoke C-start response, acoustic stimuli were applied according to the following protocol: 10 taps were carried out with 1 minute intervals every hour for 4 hours. The force of tapping was standardized. Images were recorded with Ximea Camera (MQ003MG-CM) at 500 fps for 2 s. Data were analyzed by Flote software version 2.1 and maximal angular velocity parameters of C-start reflex were quantified. For the experiments investigating the effect of the inhibitor on the heart muscle of zebrafish, 6 dpf larvae were embedded in 1% agarose and kept in E3 in the presence of 20 μM neurelaxin-A. Videos were taken by a camera at 15.1 fps before and after inhibitor treatment every hour for 3 hours.
# Transgenic Tg(−8.0cldnb:lynEGFP)^zf106 (cldnb:gfp) (Haas, P. & Gilmour, D., Developmental Cell 10, 2006, pp 673-680) zebrafish (Danio rerio) were maintained in the animal facility of Eötvös Loránd University. […]
# The relative rate of in vivo skeletal muscle contraction was quantified based on the velocity of the rotating heads of the animals have been quantified (maximal angular velocity) in the absence and in the presence of neurelaxin-A (2 μM), monitored for 4 hours.
# [3] = test system: embryonic mouse hippocampal cells; experiment: Neurite growth in embryonic hippocampal cell culture; type: cell-based; conditions: 50 μM
# Method: Embryonic mouse hippocampal cells were isolated from 17-day-old embryo and cultured on poly-D-lysine coated dish in neurobasal medium complemented with B27, FCS and glutamax for 20 hours.
# The growth of neurites was monitored by phase contrast microscopy after the addition of 50 μM neurelaxin-A (Imaging buffer: Extracell isotonic salt solution, buffered with 5 mM HEPES).
# [4] = test system: Mauthner axon of zebrafish embryos; experiment: Mauthner axon regeneration after photoablation; type: in vivo; conditions: 3 dpf zebrafish embryos
# Excerpt: The Mauthner neuron is a giant neuron in the hindbrain of zebrafish embryos, which is a widely used model for studying regeneration. The Mauthner axon of 3 dpf zebrafish embryos was photoablated with two-photon irradiation at 800 nm.
# [5] = test system: embryonic rat hippocampal neurons; experiment: Cannabinoid (WIN55,212-2)-induced growth cone retraction; type: cell-based; conditions: 100 μM pre-treatment, WIN55,212-2 100 nM
# Method: Embryonic rat hippocampal neurons were isolated from 18-day-old embryo and cultured on poly-D-lysine coated dish in Neurobasal medium complemented with B27, FBS and glutamax for 6 days and transfected by using Lipofectamine 2000 with DNA codig for LifeAct-mCherry and CB1R-CFP.
# The growth of neurites were monitored by fluorescent miscroscopy after the addition of different pre-treatment doses of neurelaxin-A at 20 minutes, followed 20 minutes later by the addition of 100 nM of the synthetic cannabinoid WIN55,212-2 as described in Roland et al, 2014.
smiles,measurement,setting,value
"Cc1ccc2c(c1)C(=O)C1(O)CCN(c3ccc(N)cc3)C1=N2 (stereo not shown) [Neurelaxin-A, 1-(4-aminophenyl)-3a-hydroxy-6-methyl-3,3a-dihydro-1H-pyrrolo[2,3-b]quinolin-4(2H)-one]","inhibition reached, actin activated ATPase of DdMD",[1]; actin activated,80%
same,IC50,"[1]; actin activated, 300 nM DdMD, 15 μM actin, read-out: IC50 actin activated ATPase activity of DdMD",6.7 ± 1.9 µM
same,"inhibition reached, basal ATPase of DdMD",[1]; basal,90%
same,IC50,"[1]; basal, 1 μM DdMD, read-out: IC50 basal ATPase of DdMD",6.6 ± 2 µM
same,time of half inhibition of maximal angular velocity,[2]; 2 μM,3.2 h
same,EC50,"[2]; Danio rerio, C-start, monitored for 4 hours, read-out: EC50 for the inhibition of the maximal angular velocity",< 2 µM
same,rate of neurite growth,[3],1 μm/min
same,rate of neurite growth,[3]; listed as neurelaxin-A,approximately 1 μm/min
same,maximum rate of axon growth,[4],0.6 um/min
same,time after treatment at which axon regrowth is induced,[4],1 h
same,time of treatment at which maximum rate of growth is reached,[4],2 h
same,start of axon regrowth post-ablation,[4]; spontaneous regrowth normally after 30 hours,19 h
same,cannabinoid-induced retraction of axonal growth cones,[5],significantly prevented
